Data set [1] concerns Mycobacterium tuberculosis. As to the kind of experiment: Antitubercular activity against Mycobacterium tuberculosis H37Rv ATCC 27294 after 5 days under aerobic condition. It is filed as functional, organism-based. Conditions: H37Rv ATCC 27294, 120 h.
For data set [2] the following is noted: human, caco-2, 2 h, 10 µM.
Description: Apparent permeability of the compound across apical side to basolateral side in human Caco2 cells monolayer at 10 uM after 2 hrs by LC-MS/MS analysis
Data set [3] in a line: Half life in human liver S9 microsomes at 1 uM in absence of NADPH by LC-MS/MS analysis.
Data set [4] in a line: Protein binding in human plasma at 5 uM after 4 hrs by LC-MS/MS analysis.
The next data set relates to HepG2. As to the kind of experiment: Cytotoxicity against human HepG2 cells at 100 uM after 3 days by CellTiter-Glo luminescent cell viability assay. Type of data set: cell-based. The note with it: HepG2, 72 h.
In data set [5] the test system is Mycobacterium tuberculosis. As to the kind of experiment: Antitubercular activity against luxABCDE expressing Mycobacterium tuberculosis H37Rv infected in mouse J774 macrophages assessed as log reduction in bacterial colonies at 20 uM measured after 4 days under aerobic condition by luminescence assay. It is filed as functional.
Data set [6] deals with Mycobacterium tuberculosis. In words: Antitubercular activity against Mycobacterium tuberculosis H37Rv ATCC 27294 after 10 days under low oxygen condition followed by incubation under aerobic condition for 28 hrs by LORA. Type of data set: functional, organism-based.
Data set [7] can be described thus: Half life in human liver S9 microsomes at 1 uM in presence of NADPH by LC-MS/MS analysis.
Data set [8] relates to Mycobacterium tuberculosis. As to the kind of experiment: Bactericidal activity against Mycobacterium tuberculosis H37Rv ATCC 27294 assessed as concentration required for 2 log kill after 21 days under aerobic condition by colony forming assay. It is filed as functional. The note with it: H37Rv ATCC 27294, 504 h.
For data set [9] the following is noted: human, caco-2, 2 h, 10 µM. The source holds these as a separate data set.
Description: Apparent permeability of the compound across basolateral side to apical side in human Caco2 cells monolayer at 10 uM after 2 hrs by LC-MS/MS analysis
A further data set deals with Vero. In words: Cytotoxicity against African green monkey Vero cells after 2 days by CellTiter-Glo luminescent cell viability assay. Conditions: Chlorocebus sabaeus, 48 h. It is filed as ADME, cell-based.

SMILES strings stand for the structures. ≈ marks a conversion by molar mass, not a printed value.

As a reminder, the IC50 is the concentration that gives 50% inhibition. One may read the IC90 as the concentration at which the effect reaches the 90% level. The MIC is the lowest concentration found to suppress growth. Broadly, the Papp is a coefficient for how fast a substance crosses the barrier. Broadly, the half-life is the time needed for the level to fall by half in the phase considered. The term fraction unbound denotes free concentration divided by total concentration. The MBC is the lowest tested concentration that kills the bacteria rather than only halting them.

Turning to `O=C(Cn1cnc([N+](=O)[O-])n1)Nc1nc(-c2ccc(F)c(F)c2)cs1`, the half-maximal inhibitory concentration (IC50) is 27 µM in data set [1], 78 µM in the data set with HepG2, 8.7 µM in data set [6] and 55 µM with Vero. The 90% effect concentration (IC90) in [1] and in [6] was 39 µM in each case. Also, the MIC in data set [1] is 37 µM (≈ 13.6 µg/mL); in [6], more than 200 µM. The results for the apparent permeability coefficient (Papp) in [2] and in data set [9] were 37.7 ×10⁻⁶ cm/s and 19.9 ×10⁻⁶ cm/s, respectively. The half-life at 1 µM in data set [3] and in data set [7] was more than 3 h throughout. In [4], this compound showed a free fraction (fraction unbound) at 4 h, 5 µM of 0.002. Also, the “log(activity)” value in data set [5] was found to be 2.4. The MBC in [8] is 20 µM (≈ 7.33 µg/mL).

Values taken from ChEMBL document CHEMBL4177599, “The antitubercular activity of various nitro(triazole/imidazole)-based compounds” (Bioorg Med Chem, 2017).
